For orientation: IC50 means the concentration needed to halve the response being measured. A word on the IC90: it is the concentration at which the effect reaches the 90% level. A word on the % inhibition: it is the share of the control response that was lost under treatment. Broadly, the inhibition is the relative decrease from the control value, in per cent. A lower inhibition goes with a weak effect.

The structures appear in SMILES notation.

Data set [1] concerns RMUG-S ovarian cancer xenograft. Put plainly: RMUG-S ovarian cancer CDX model. Type of data set: in vivo, NOD SCID or NOG mice. The method, then: The CDX model was established by subcutaneous inoculation of 1×10^7 viable RMUG-S cells into the right flank of NOD SCID or NOG mice. […] Compound 1 was administered to mice orally either once daily (QD) or twice daily (BID) for 32-50 days. Compound 1 was administered to mice continuously throughout the treatment period (7/7 days) or intermittently from Monday-Friday (5/7 days), or Monday-Thursday (4/7 days) during the treatment period.
For all studies, tumor volumes and body weights were measured twice weekly. […] Statistical analysis of end-of-study mean tumor volumes for the T025OV model was performed using an unpaired t-test with Welch's correction.

Data set [2] concerns T025OV ovarian cancer patient-derived organoid. Put plainly: 7-day organoid colony formation, ATP content (Cell Titer Glo 3D). It counts as cell-based. Particulars: Homo sapiens, 168 h, T025OV PDO, 7 days, geometric mean. From the text: The FU-97 (Cat #JCRB1074) human gastric cancer cell line and the Kuramochi (Cat #JCRB0098) and RMUG-S(Cat #IFO50320) human ovarian cancer cell lines were obtained from the National Institutes of Biomedical Innovation, Health and Nutrition's Japanese Collection of Research Bioresources (JCRB) (Ibaraki City, Osaka, Japan). The HCC1419 (Cat #CRL-2326) and HCC1428 (Cat #CRL-2327) human breast cancer cell lines and the NCI-H1650 (Cat #CRL-5883) and NCI-H1792 (Cat #CRL-5895) non-small cell lung cancer cell lines were obtained from ATCC (Manassas, Virginia, USA). The human gastric cancer cell lines GCIY (Cat #RCB0555) and SNU601 (Cat #CSC-C9686L) were obtained from the Riken Bioresource Research Center (Tsukuba, Ibaraki, Japan) and Creative Bioarray (Shirley, NY, USA), respectively. The T025OV ovarian cancer organoid model was developed from a patient-derived xenograft (PDX) model, which was developed from primary serous ovarian carcinoma cells obtained from Discovery Life Sciences (Huntsville, AL, USA, SN #350627149). […]
(§1) Compound 1 IC50 values for inhibition of organoid colony formation were determined by measuring ATP levels after 7 days of treatment utilizing Cell Titer Glo 3D reagent (Promega, Madison, WI, USA Cat #G9683). […] Luminescence values (RLU) were read-out using a Clariostar plate reader (BMG Labtech, Cary, NC). […]

Data set [3] has as its system T026OV ovarian cancer patient-derived organoid. The data set is described as above. The settings on record: T026OV PDO, 7 days. Type of data set: cell-based, human.
From the text: The FU-97 (Cat #JCRB1074) human gastric cancer cell line and the Kuramochi (Cat #JCRB0098) and RMUG-S(Cat #IFO50320) human ovarian cancer cell lines were obtained from the National Institutes of Biomedical Innovation, Health and Nutrition's Japanese Collection of Research Bioresources (JCRB) (Ibaraki City, Osaka, Japan). The HCC1419 (Cat #CRL-2326) and HCC1428 (Cat #CRL-2327) human breast cancer cell lines and the NCI-H1650 (Cat #CRL-5883) and NCI-H1792 (Cat #CRL-5895) non-small cell lung cancer cell lines were obtained from ATCC (Manassas, Virginia, USA). The human gastric cancer cell lines GCIY (Cat #RCB0555) and SNU601 (Cat #CSC-C9686L) were obtained from the Riken Bioresource Research Center (Tsukuba, Ibaraki, Japan) and Creative Bioarray (Shirley, NY, USA), respectively. The T025OV ovarian cancer organoid model was developed from a patient-derived xenograft (PDX) model, which was developed from primary serous ovarian carcinoma cells obtained from Discovery Life Sciences (Huntsville, AL, USA, SN #350627149). T026OV organoids were developed from PDX cells obtained from The Jackson Laboratory (Bar Harbor, ME, USA, Cat #TM00335).
T025OV and T026OV PDOs were cultured in PDO complete media on a thin layer of growth-factor reduced Matrigel (Corning, Glendale, AZ, USA Cat #356231). […]
as §1

Data set [4] concerns panel of 468 protein kinases (all other kinases tested). Put plainly: Eurofins protein kinase panel at 10 μM. It counts as biochemical. How it is done:
(§2) The inhibitory potential of Compound 1 was tested against 38 diverse non-kinase enzymes and 55 receptors, ion channels and neurotransmitter transporters in radioligand competition binding assays using mostly human recombinant proteins. […] Compound 1 was also tested against an additional panel of 468 protein kinases. Studies were performed at Eurofins (Luxembourg City, Luxembourg) using their published assay formats.

The target in data set [5] is T1, DRYK1B (Homo sapiens, UniProt Q9Y463).
T1 construct: Eurofins (contract study)
T1 sequence (Q9Y463 whole entry): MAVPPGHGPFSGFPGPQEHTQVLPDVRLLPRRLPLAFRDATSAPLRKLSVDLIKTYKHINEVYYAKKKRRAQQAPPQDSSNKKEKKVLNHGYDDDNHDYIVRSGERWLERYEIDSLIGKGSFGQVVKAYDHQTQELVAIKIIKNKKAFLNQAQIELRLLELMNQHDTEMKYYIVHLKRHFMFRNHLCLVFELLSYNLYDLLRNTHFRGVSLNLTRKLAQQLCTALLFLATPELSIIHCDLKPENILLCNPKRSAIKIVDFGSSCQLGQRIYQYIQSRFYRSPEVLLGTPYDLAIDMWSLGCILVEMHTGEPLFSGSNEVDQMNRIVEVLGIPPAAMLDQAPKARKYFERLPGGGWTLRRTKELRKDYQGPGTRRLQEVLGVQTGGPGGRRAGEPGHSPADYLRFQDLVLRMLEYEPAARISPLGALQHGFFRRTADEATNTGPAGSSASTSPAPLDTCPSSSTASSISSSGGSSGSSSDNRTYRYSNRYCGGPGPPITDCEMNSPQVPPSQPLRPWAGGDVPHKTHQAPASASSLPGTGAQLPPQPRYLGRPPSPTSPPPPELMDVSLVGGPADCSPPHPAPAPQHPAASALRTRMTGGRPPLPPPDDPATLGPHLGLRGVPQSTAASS
In words: Eurofins protein kinase panel at 10 μM. It counts as biochemical. How it is done:
as §2

`[2H]C([2H])(c1cnn(C)c1)N1C(=O)c2cc(S(=O)(=O)NC3(C)CC3)ccc2N2C1=NC[C@H]2C` [Compound 1, (R)-1-methyl-4-((1-methyl-1H-pyrazol-4-yl)methyl-d2)-N-(1-methylcyclopropyl)-5-oxo-1,2,4,5-tetrahydroimidazo[1,2-a]quinazoline-7-sulfonamide]: the “mean body weight gain over the treatment period” value in data set [1] (first study, highest dose group) worked out at 5%. The “tolerability (body weight)” value in data set [1] (second study) was “generally well tolerated”. The IC50 amounted to 1070 nM in data set [2] (read-out: IC50 inhibition of ATP content) and 213 nM in data set [3] (Homo sapiens, 168 h, geometric mean, read-out: IC50 inhibition of ATP content). The 90% effect concentration (IC90) in data set [2] (read-out: IC90 inhibition of ATP content) came to 10700 nM; in data set [3] (Homo sapiens, 168 h, geometric mean, read-out: IC90 inhibition of ATP content) it was 567 nM. The “maximum reduction in cellular ATP content” value in data set [3] was “approximately 50%”. Further, the “% inhibition” value in data set [4] is listed as < 50%. Moreover, the inhibition at 10 µM in data set [5] was determined as 51%.

The record behind these values is patent US20260272936A1, “TREATMENT OF CANCER WITH A PARG INHIBITOR” (858 Therapeutics, Inc., priority 2023, published 2026).
